# Ends that are not written are not given here.
# How the values were obtained:
# [1] = Plasma stability of thymopentin by HPLC; format: in vitro ADME; details: thymopentin 1.0 mM, equal amount of rat plasma, 37 °C, HPLC-UV 210 nm
# Method: To test the above hypothesis, we compared the plasma stability of free thymopentin, a host–guest mixture of thymopentin/ExBP3C, thymopentin/CP5A, and thymopentin/cucurbit[7]uril (CB[7]) using high-performance liquid chromatography (HPLC). According to a previously reported method, the above samples (all containing 1.00 mM of thymopentin) were dissolved in deionized water and then incubated with an equal amount of rat plasma at 37 °C. At predetermined intervals, 100 μL of solution in various groups were withdrawn and quenched with 100 μL of acetonitrile containing 0.1% trifluoroacetic acid (TFA). HPLC analysis was performed on an LC-10AT VP Plus liquid chromatography system with an SPD-10 A VP Plus UV–Vis detector operating at 210 nm and quantified using Shimadzu LC solution Lite. The column used was a C18 reverse-phase column, and the mobile phase was composed of solvent A (water containing 0.1% TFA) and solvent B (70% acetonitrile and 0.1% TFA); the injection volume and flow rate were respectively set as 20 μL and 1.00 mL∙min^−1. The appropriate calibration curve was first derived to calculate the concentration of thymopentin based on the above-mentioned procedure (Figure 5a). […]
# Figure 5 (a) Calibration curve obtained by HPLC and used to calculate thymopentin concentration in plasma stability. […] (2.0 mM) as determined by HPLC.
# [2] = tested on: rabbit red blood cells (rRBCs); assay: Hemolysis assay; format: cell-based; details: 320 μM, 37 °C, 24 h; 1% Triton X-100 defined as 100%; mean ± SD, n = 3
# Method: (§1) In practical biomedical applications, the safety profiles of supplementary materials are of great concern. Here we preliminarily investigated the cytotoxicity of ExBP3C on a mouse fibroblast cell line (L929) and its hemolytic activity toward rabbit red blood cells (rRBCs). ExBP3C was first dissolved in deionized water and diluted to the required concentrations. For cytotoxicity studies, ExBP3C samples were added to L929 cell-containing wells, which were incubated at 37 °C under 5% CO2 for 24 h, and then the Cell Counting Kit-8 reagent was added into each well to stain for 30 min. […] For the hemolysis assay, ExBP3C samples were added to an erythrocyte suspension at 37 °C for 24 h. After that, the suspension was centrifuged at 1000 rpm for 10 min, and 100 μL of supernatant was transferred to a 96-well plate for measurement by a plate reader. […] On the basis of experimental results and prior studies, we concluded that the administration of ExBP3C at the above examination range was relatively nontoxic on a cellular level.
# (§2) Figure 6 (a) Relative viability of mouse fibroblast cell line (L929) after treatment with ExBP3C for 24 h at the indicated concentrations (mean ± SD, n = 5). (b) Hemolysis of ExBP3C toward rabbit red blood cells (rRBCs) after 24 h of incubation time, and the hemolytic rate of rRBCs incubated with 1% Triton X-100 was defined as 100% (mean ± SD, n = 3).
# thymopentin = molecular target: T1, thymopentin (Homo sapiens, UniProt P42166); assay: Isothermal titration calorimetry (ITC) of thymopentin into ExBP3C; format: binding; details: deionized water, 25 °C, ExBP3C 40 μM in cell, thymopentin 500 μM in syringe
# T1 construct: purchased
# Method: An isothermal microcalorimetric titration (ITC) experiment was further carried out in deionized water at 25 °C on a PEAQ-ITC to quantitatively assess the binding affinity and related thermodynamic parameters. A 300 μL solution of ExBP3C was placed in the sample cell at a concentration of 40 μM, and 70 μL of a solution of thymopentin (500 μM) was placed in the injection syringe. The titration was conducted by titration of 18 drops of thymopentin to the ExBP3C solution, and all solutions were degassed prior to titration. […] It should be noted that the binding stoichiometry between ExBP3C and thymopentin was determined to be 0.956 ± 0.011, which was very close to 1:1 and consistent with the above entire encapsulation mode (Figure 3). A larger interaction area of thymopentin/ExBP3C would facilitate the production of a stronger binding affinity.
# Figure 3 ITC isotherm for the titration of thymopentin/ExBP3C in aqueous solution at room temperature (top: raw data; bottom: net reaction heat obtained from integration of calorimetric traces).
# [3] = tested on: mouse fibroblast cell line (L929); assay: Cytotoxicity, Cell Counting Kit-8; format: cell-based; details: 24 h, 37 °C, 5% CO2, CCK-8, 450 nm; even at relatively high concentrations; mean ± SD, n = 5
# Method: as §1, §2
Substance,"Residual thymopentin after exposure to rat plasma, in words ([1]; 30 min)",Time until thymopentin became undetectable ([1]; alone or with macrocycle 2.0 mM),Relative hemolysis [2],"binding stoichiometry, N (sites) (thymopentin)","Cytotoxicity against L929 cells, in words [3]"
RKDVY [thymopentin],undetectable,≤ 30 min,–,–,–
extended biphen[3]arene carboxylate [ExBP3C],–,–,1.92%,0.956 ± 0.011,minimal cytotoxicity

# Reference: PMC11767344, “Entire Encapsulation of Thymopentin by Extended Biphen[3]arene Carboxylate for Improving Plasma Stability” (Molecules, 2025)
